“And” between values parts separate entries of the source, which are not always exact repeats. Equal values may be shown once.
Experiments:
[1] = single intravenous dose-escalation clinical trial, safety; assay type: in vivo, human; settings: healthy adults, single intravenous 10, 20, 40, 80 mg
Method: In order to confirm the safety/PK/PD of the compound of the present invention during intravenous administration, the clinical trial was designed with random assignment, double-blind, placebo-controlled, single dose, and stepwise dose-escalation in healthy adults (Korean/Chinese) between the ages of 19 and 50.
The freeze-dried composition prepared as above was used, but a total of 28 subjects of 4, 8, 8, and 8 subjects each were enrolled for four dose groups (10 mg, 20 mg, 40 mg, and 80 mg) based on fexuprazan weight, and each group was randomly assigned to test or control groups in the order that they passed the screening criteria at a ratio of 3:1. All test subjects completed safety, pharmacokinetic, and pharmacodynamic evaluations according to the planned clinical trial schedule.
(§1) Testing of the acidity (pH) in the gastrointestinal tract and gastric secretion promoting hormone gastrin were performed from 24 hours before medication to 24 hours after medication. Blood collection for pharmacokinetics and urine collection for pharmacokinetics were performed for 48 hours from the time of medication.

[2] = oral vs intravenous two-way crossover clinical trial, pharmacokinetics / bioavailability; assay type: in vivo; settings: human, blood, healthy adults; for Cmax: n 8
Source text: (§2) Therefore, in order to compare the safety/PK/PD of the compound of the present invention during single intravenous administration and during single oral administration and derive the bioavailability, the clinical trial was designed as a randomized, open-label, single-dose, two-period, two-way crossover trial in healthy adults. The selection/exclusion criteria were the same as in Experimental Example 4. A total of 8 subjects were enrolled, and four subjects each were randomly assigned to sequence group 1 or sequence group 2 in the order in which they passed the screening criteria. All test subjects completed safety, pharmacokinetic, and pharmacodynamic evaluations according to the planned clinical trial schedule.
(§3) A screening visit was performed 3 to 28 days before the start of the clinical trial, and hospital admission was performed 2 days before medication. The first phase medication was performed according to the order group randomly assigned on the morning of the day. A stabilizer (200 mg), a freeze-drying auxiliary agent (200 mg), and the previously prepared fexuprazan hydrochloride (40 mg based fexuprazan weight) were dissolved in water for injection (4 mL), an appropriate amount of acid was added thereto. A composition whose pH was adjusted to 4.0 was administered intravenously, or an excipient (100 mg), a disintegrant (5 mg), and the previously prepared fexuprazan hydrochloride (40 mg based on fexuprazan weight) were mixed and compressed to prepare a tablet, which were administered orally. The hospital discharge was performed on the third day of medication. The second phase medication was performed on the morning of the 8th after hospital admission on the 6th day after the first phase medication. Hospital discharge was performed on the 10th day of medication. Subsequently, a close-out visit was performed between 15 and 18 days after medication (FIG. 6).
as §1

[3] = 4-week repeated intravenous toxicity test, beagle dog; assay type: in vivo
Method: The previously prepared fexuprazan hydrochloride was dissolved in a solution containing 30 wt. % of polyethylene glycol (Polyethylene Glycol 400) polymer in physiological saline, and the concentration was calculated based on fexuprazan weight so that it could be administered at a liquid volume of 5 mL/kg for rats and 2 mL/kg for beagle dogs to prepare each composition. Toxicity was evaluated by intravenously administering at doses of 0, 2.5, 5, and 10 mg/kg/day to rats and beagle dogs, respectively, once a day for 4 weeks.

[4] = test system: acidity (pH) in the gastrointestinal tract; assay: oral vs intravenous two-way crossover clinical trial, acidity (pH) in the gastrointestinal tract; assay type: in vivo, human; settings: healthy adults
Source text: as §2, §3, §1

[5] = test system: indomethacin-induced bleeding gastric ulcer; assay: indomethacin-induced bleeding gastric ulcer model using male rats; assay type: in vivo, rat; settings: for Ulcer index (%): 30 min before indomethacin 80 mg/kg oral, autopsy 5 h; for Ulcer index (%) / Gastric erosion state / Gastric hemorrhage state: mean ± SD; for Gastric erosion state / Gastric hemorrhage state: histopathological examination
Method: In order to evaluate the efficacy of fexuprazan against bleeding gastric ulcers, an indomethacin-induced bleeding gastric ulcer model using male rats was used.
Specifically, the previously prepared 1-(5-(2,4-difluorophenyl)-1-((3-fluorophenyl)sulfonyl)-4-methoxy-1H-pyrrol-3-yl)-N-methylmethanamine (hereinafter referred to as ‘fexuprazan’) hydrochloride was dissolved in a solution containing 30 wt. % of polyethylene glycol (Polyethylene Glycol 400) polymer in physiological saline. The concentration was adjusted so that 0, 0.1, 0.5, 1, 2 mg/kg based on fexuprazan weight could be administered to each test animal in a liquid volume of 1 mL/kg, and then each test animal was administered through the tail vein as a single dose. In addition, 1 mg/kg of esomeprazole magnesium trihydrate, which is a positive control, based on esomeprazole weight was administered as a single dose through the tail vein in test animals. After 30 minutes, 80 mg/kg of indomethacin was orally administered as a single dose to each test animal to induce gastric bleeding and ulceration. An autopsy was performed 5 hours after administration of indomethacin, and the stomach was removed. Then, the ulcer index (%) was measured using an image program (Leica Application Suite V4), and gastric hemorrhage and erosion state were evaluated through histopathological examination.

[6] = intravenous administration (40 mg)
[7] = 0.1 mg/kg single dose tail vein
[8] = 0.5 mg/kg single dose tail vein

## CNCc1cn(S(=O)(=O)c2cccc(F)c2)c(-c2ccc(F)cc2F)c1OC [Fexuprazan, 1-(5-(2,4-difluorophenyl)-1-((3-fluorophenyl)sulfonyl)-4-methoxy-1H-pyrrol-3-yl)-N-methylmethanamine]
[1]
  serious abnormalities or side effects: no serious abnormalities or side effects were observed
[2]; [6]
  AUC(0-inf): 1150 ± 279 ng·h/mL
  AUC(0-t): 1110 ng·h/mL
  Tmax: 0.25 h
  half-life: 9.53 ± 2.42 h
  Cmax: 277 ng/mL
[2]; oral administration (40 mg)
  AUC(0-inf): 556 ± 299 ng·h/mL
  AUC(0-t): 536 ng·h/mL
  Tmax: 2.09 h
  half-life: 9.38 ± 1.6 h
[2]; oral administration (40 mg) tablet
  Cmax: 49.9 ng/mL
[3]; Beagle dog, 4 weeks, intravenous, doses 0, 2.5, 5, 10
  Result: harmless dose: harmless dose 10 mg/kg
[3]; beagle dogs, 2.5, 5, 10 mg/kg/day intravenous, 4 weeks
  toxic symptoms due to the test substance: no toxic symptoms due to the test substance were observed in all administration groups
[3]; beagle dogs, intravenous once a day for 4 weeks
  harmless dose: 10 mg/kg/day
[4]; [6]
  Fraction time pH ≥ 4 (%): 71.6% and 71.6 ± 13.5%
  Fraction time pH ≥ 6 (%): 38.7 ± 10.9%
  Mean pH: 4.9 and 4.9 ± 0.5
  Median pH: 5.5 ± 0.7
[4]; oral administration (40 mg)
  Fraction time pH ≥ 4 (%): 47.5% and 47.5 ± 14.2%
  Fraction time pH ≥ 6 (%): 20.3 ± 12.8%
  Mean pH: 3.9 and 3.9 ± 0.7
  Median pH: 3.9 ± 1.2
[5]; [7]
  Ulcer index (%): 9.2 ± 2.3^ %
  Gastric erosion state: 2.9 ± 1.2
  Gastric hemorrhage state: 1.5 ± 1.6^
[5]; [8]
  Ulcer index (%): 4.0 ± 1.8 %
  Gastric erosion state: 1.3 ± 1.0
  Gastric hemorrhage state: 0.5 ± 0.8
[5]; 1 mg/kg single dose tail vein
  Ulcer index (%): 4.2 ± 2.5 %
  Gastric erosion state: 0.8 ± 0.7
  Gastric hemorrhage state: 0.3 ± 0.5
[5]; 2 mg/kg single dose tail vein
  Ulcer index (%): 4.2 ± 1.5 %
  Gastric erosion state: 0.3 ± 0.5
  Gastric hemorrhage state: 0.3 ± 0.5
[5]; single dose tail vein, ulcer index, gastric hemorrhage and erosion state vs excipient group
  minimum effective dose: 0.5 mg/kg
